# Laboratory results published in EP4722212A1, “NOVEL COMPOUND FOR INHIBITING PROTEIN KINASES AND PHARMACEUTICAL COMPOSITION COMPRISING SAME” (Magicbullettherapeutics Co., Ltd., priority 2023, dated 2024).
# Like-named read-outs stand apart in the source and are kept apart here.
# Assays:
# Assay in all cases: Kinase panel
# Format in all cases: biochemical
# DAPK1 = DAPK1 (Homo sapiens, UniProt P53355); settings: DAPK1, 1 µM; read-out: residual enzyme activity
# Description: (§1) To measure the inhibitory activity of protein kinases against the compounds of the present invention, a biochemical assay was performed using a full kinase panel. The inhibitory efficacy of kinases was measured when Example compounds 8 and 51 were treated at a single concentration of 1 µM, and residual enzyme activity values were calculated. Kinases were identified when the calculated residual enzyme activity values were 40% or less, i.e., inhibited by 60% or more.
# PHKG2 = PHKG2 (Homo sapiens, UniProt P15735); settings: PHKg2, 1 µM; read-out: residual enzyme activity
# Description: as §1
# ZAK/MLTK = ZAK/MLTK (Homo sapiens, UniProt Q9NYL2); settings: read-out: residual enzyme activity
# Description: as §1
# PKN3/PRK3 = PKN3/PRK3 (Homo sapiens, UniProt Q6P5Z2); settings: PKN3/PRK3, 1 µM; read-out: residual enzyme activity
# Description: as §1
# LYN B = LYN B (Homo sapiens, UniProt P07948); settings: read-out: residual enzyme activity
# Description: as §1
# SBK1 = SBK1 (Homo sapiens, UniProt Q52WX2); settings: SBK1, 1 µM; read-out: residual enzyme activity
# Description: as §1
# NEK6 = NEK6 (Homo sapiens, UniProt Q9HC98); settings: NEK6, 1 µM; read-out: residual enzyme activity
# Description: as §1
# TSSK2 = TSSK2 (Homo sapiens, UniProt Q96PF2); settings: TSSK2, 1 µM; read-out: residual enzyme activity
# Description: as §1
# MAPKAPK3 = MAPKAPK3 (Homo sapiens, UniProt Q16644); settings: MAPKAPK3, 1 µM; read-out: residual enzyme activity
# Description: as §1
# PIM2 = PIM2 (Homo sapiens, UniProt Q9P1W9); settings: PIM2, 1 µM; read-out: residual enzyme activity
# Chain of PIM2 (Q9P1W9 whole entry, species assumed): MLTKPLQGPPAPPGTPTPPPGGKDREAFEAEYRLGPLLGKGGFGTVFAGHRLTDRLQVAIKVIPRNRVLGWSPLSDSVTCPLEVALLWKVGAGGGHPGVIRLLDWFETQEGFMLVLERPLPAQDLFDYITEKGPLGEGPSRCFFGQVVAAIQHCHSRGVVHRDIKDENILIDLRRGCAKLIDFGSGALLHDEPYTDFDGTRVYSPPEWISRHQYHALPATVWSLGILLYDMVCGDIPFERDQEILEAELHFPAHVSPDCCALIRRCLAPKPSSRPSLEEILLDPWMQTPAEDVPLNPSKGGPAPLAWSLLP
# Description: as §1
# PKD2/PRKD2 = PKD2/PRKD2 (Homo sapiens, UniProt Q9BZL6); settings: PKD2/PRKD2, 1 µM; read-out: residual enzyme activity
# Description: as §1
# KSR1 = KSR1 (Homo sapiens, UniProt Q8IVT5); settings: KSR1, 1 µM; read-out: residual enzyme activity
# Chain of KSR1 (Q8IVT5 whole entry, species assumed): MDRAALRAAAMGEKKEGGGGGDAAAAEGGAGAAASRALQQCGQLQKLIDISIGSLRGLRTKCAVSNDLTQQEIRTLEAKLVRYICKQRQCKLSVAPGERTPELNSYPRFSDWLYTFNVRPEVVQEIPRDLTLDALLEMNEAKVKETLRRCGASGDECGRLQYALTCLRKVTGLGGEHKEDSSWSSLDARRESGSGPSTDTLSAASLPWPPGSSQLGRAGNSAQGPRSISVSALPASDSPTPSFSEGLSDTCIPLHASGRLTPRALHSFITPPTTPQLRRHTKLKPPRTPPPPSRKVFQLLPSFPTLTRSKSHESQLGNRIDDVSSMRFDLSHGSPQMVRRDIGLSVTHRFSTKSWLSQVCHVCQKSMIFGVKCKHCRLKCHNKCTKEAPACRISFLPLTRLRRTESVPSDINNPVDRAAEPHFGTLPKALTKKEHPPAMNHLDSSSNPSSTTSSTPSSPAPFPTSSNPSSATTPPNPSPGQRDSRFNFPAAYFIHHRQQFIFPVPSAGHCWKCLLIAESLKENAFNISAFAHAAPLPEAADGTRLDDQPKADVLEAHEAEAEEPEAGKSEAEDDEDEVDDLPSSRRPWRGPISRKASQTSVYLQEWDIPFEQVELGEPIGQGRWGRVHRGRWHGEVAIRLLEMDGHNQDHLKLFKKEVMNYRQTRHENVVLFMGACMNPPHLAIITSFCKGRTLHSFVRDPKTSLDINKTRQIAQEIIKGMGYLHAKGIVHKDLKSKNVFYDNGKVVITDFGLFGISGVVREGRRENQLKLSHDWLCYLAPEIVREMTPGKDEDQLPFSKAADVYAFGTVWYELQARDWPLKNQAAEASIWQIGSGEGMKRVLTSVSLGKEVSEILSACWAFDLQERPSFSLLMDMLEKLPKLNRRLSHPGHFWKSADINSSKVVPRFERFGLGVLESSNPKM
# Description: as §1
# PKACB = PKACB (Homo sapiens, UniProt P22694); settings: read-out: residual enzyme activity
# Description: as §1
# CKIEPSILON = CKIEPSILON (Homo sapiens, UniProt P49674); settings: read-out: residual enzyme activity
# Description: as §1
# ALK2/ACVR1 = ALK2/ACVR1 (Homo sapiens, UniProt Q04771); settings: ALK2/ACVR1, 1 µM; read-out: residual enzyme activity
# Chain of ALK2/ACVR1 (Q04771 21-509): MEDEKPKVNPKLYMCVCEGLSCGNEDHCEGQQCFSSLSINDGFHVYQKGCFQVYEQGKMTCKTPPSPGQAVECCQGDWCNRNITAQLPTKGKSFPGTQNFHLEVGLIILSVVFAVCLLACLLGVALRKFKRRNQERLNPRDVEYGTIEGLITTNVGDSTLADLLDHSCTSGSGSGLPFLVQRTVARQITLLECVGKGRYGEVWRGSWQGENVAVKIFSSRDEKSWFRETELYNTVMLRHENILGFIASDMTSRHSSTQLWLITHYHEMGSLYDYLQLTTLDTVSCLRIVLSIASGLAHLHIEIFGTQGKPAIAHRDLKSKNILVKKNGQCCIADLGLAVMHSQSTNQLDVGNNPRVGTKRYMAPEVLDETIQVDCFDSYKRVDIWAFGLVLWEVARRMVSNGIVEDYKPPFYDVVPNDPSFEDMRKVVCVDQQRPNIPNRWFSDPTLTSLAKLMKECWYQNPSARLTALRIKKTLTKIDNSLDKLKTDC
# Description: as §1
# CDK9/CYCLIN T1 = CDK9/CYCLIN T1 (Homo sapiens, UniProt P50750); settings: CDK9/cyclin T1, 1 µM; read-out: residual enzyme activity
# Description: as §1
# PYK2 = PYK2 (Homo sapiens, UniProt Q14289); settings: PYK2, 1 µM; read-out: residual enzyme activity
# Description: as §1
# AURORA A = AURORA A (Homo sapiens, UniProt O14965); settings: read-out: residual enzyme activity
# Description: as §1
# LKB1 = LKB1 (Homo sapiens, UniProt Q15831); settings: LKB1, 1 µM; read-out: residual enzyme activity
# Chain of LKB1 (Q15831 whole entry, species assumed): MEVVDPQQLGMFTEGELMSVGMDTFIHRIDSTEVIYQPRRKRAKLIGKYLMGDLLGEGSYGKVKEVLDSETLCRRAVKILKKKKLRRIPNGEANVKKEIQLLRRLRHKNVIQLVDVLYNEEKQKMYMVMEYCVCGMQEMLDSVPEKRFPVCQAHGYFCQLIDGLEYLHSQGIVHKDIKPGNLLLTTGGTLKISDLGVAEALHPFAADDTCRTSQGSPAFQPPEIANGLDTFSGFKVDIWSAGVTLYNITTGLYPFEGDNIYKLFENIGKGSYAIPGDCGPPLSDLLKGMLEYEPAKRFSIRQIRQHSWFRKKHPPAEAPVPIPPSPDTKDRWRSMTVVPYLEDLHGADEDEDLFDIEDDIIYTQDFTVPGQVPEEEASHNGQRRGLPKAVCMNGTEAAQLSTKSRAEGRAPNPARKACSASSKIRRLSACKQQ
# Chain of LKB1 (Q7RTN6 whole entry partner, species assumed): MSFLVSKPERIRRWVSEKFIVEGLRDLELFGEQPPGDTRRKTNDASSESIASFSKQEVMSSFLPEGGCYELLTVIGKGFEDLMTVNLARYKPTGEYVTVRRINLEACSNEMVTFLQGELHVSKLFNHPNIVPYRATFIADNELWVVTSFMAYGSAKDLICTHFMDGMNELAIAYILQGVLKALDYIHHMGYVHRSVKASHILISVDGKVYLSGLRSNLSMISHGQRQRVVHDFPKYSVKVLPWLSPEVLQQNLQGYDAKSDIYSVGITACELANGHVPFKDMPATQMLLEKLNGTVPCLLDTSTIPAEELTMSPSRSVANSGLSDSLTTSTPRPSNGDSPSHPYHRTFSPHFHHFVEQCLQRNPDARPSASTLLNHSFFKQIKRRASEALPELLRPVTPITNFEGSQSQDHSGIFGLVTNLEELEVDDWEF
# Chain of LKB1 (Q9Y376 whole entry partner, species assumed): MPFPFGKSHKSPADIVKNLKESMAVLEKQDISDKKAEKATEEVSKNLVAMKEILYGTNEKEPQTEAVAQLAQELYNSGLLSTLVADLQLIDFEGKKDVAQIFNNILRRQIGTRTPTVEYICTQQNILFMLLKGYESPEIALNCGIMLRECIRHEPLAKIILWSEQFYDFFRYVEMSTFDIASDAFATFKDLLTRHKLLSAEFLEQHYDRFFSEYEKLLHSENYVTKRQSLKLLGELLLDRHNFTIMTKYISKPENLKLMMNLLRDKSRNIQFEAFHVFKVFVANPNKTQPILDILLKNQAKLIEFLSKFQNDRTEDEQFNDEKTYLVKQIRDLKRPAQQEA
# Description: as §1
# FMS = FMS (Homo sapiens, UniProt P07333); settings: read-out: residual enzyme activity
# Description: as §1
# CK2A2 = CK2A2 (Homo sapiens, UniProt P19784); settings: read-out: residual enzyme activity
# Chain of CK2A2 (P19784 whole entry, species assumed): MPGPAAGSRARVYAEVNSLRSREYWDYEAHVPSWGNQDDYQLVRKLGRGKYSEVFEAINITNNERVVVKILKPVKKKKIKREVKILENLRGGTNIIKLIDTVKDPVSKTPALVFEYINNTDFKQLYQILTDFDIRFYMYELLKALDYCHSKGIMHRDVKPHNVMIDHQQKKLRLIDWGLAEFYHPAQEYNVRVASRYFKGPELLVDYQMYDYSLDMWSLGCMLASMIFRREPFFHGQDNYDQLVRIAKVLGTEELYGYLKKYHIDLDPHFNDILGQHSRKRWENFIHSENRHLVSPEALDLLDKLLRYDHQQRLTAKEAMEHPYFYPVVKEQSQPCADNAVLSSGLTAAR
# Description: as §1
# IR = IR (Homo sapiens, UniProt P06213); settings: read-out: residual enzyme activity
# Description: as §1
# TAOK1 = TAOK1 (Homo sapiens, UniProt Q7L7X3); settings: TAOK1, 1 µM; read-out: residual enzyme activity
# Description: as §1
# PAK2 = PAK2 (Homo sapiens, UniProt Q13177); settings: PAK2, 1 µM; read-out: residual enzyme activity
# Description: as §1
# SNARK/NUAK2 = SNARK/NUAK2 (Homo sapiens, UniProt Q9H093); settings: SNARK/NUAK2, 1 µM; read-out: residual enzyme activity
# Chain of SNARK/NUAK2 (Q9H093 whole entry): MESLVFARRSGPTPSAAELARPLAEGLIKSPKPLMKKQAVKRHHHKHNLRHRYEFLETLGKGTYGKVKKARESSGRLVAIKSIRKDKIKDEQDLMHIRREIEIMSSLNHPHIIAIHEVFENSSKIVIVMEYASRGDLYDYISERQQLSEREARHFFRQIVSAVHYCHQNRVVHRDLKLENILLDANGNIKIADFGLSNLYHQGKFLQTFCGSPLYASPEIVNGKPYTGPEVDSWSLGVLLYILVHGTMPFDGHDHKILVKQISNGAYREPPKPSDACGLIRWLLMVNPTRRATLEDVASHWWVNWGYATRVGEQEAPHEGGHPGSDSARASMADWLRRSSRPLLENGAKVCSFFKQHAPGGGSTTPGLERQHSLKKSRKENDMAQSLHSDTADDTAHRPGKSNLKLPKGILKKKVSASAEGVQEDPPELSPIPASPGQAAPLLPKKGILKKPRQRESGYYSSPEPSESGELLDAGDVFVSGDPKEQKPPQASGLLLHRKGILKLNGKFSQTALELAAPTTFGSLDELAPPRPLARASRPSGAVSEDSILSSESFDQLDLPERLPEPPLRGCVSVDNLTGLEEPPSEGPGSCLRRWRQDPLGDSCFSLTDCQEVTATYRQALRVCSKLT
# Description: as §1
# CDK5/P25 = CDK5/P25 (Homo sapiens, UniProt Q00535); settings: CDK5/P25, 1 µM; read-out: residual enzyme activity
# Description: as §1
# LCK = LCK (Homo sapiens, UniProt P06239); settings: read-out: residual enzyme activity
# Description: as §1
# STK38L/NDR2 = STK38L/NDR2 (Homo sapiens, UniProt Q9Y2H1); settings: STK38L/NDR2, 1 µM; read-out: residual enzyme activity
# Description: as §1
# C-SRC = C-SRC (Homo sapiens, UniProt P12931); settings: read-out: residual enzyme activity
# Chain of C-SRC (P12931 whole entry, species assumed): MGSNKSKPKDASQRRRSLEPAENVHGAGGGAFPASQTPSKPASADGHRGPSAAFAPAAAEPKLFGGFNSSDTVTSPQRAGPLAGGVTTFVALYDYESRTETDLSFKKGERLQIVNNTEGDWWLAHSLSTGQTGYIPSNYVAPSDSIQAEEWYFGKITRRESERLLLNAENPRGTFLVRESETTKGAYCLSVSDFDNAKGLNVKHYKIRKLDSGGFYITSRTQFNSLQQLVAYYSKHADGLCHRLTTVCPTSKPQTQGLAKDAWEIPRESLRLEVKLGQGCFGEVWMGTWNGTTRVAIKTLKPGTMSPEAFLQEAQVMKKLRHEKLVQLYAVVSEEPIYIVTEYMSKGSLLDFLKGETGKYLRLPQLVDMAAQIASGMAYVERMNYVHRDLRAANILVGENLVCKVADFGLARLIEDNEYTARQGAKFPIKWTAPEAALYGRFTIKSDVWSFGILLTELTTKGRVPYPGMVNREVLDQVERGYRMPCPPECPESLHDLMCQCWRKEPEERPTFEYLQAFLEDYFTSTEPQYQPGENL
# Description: as §1
# EPHAS = EPHAS (Homo sapiens, UniProt P54756); settings: read-out: residual enzyme activity
# Description: as §1
# CTK/MATK = CTK/MATK (Homo sapiens, UniProt P42679); settings: read-out: residual enzyme activity
# Description: as §1
# CHK1 = CHK1 (Homo sapiens, UniProt O14757); settings: CHK1, 1 µM; read-out: residual enzyme activity
# Chain of CHK1 (O14757 whole entry, species assumed): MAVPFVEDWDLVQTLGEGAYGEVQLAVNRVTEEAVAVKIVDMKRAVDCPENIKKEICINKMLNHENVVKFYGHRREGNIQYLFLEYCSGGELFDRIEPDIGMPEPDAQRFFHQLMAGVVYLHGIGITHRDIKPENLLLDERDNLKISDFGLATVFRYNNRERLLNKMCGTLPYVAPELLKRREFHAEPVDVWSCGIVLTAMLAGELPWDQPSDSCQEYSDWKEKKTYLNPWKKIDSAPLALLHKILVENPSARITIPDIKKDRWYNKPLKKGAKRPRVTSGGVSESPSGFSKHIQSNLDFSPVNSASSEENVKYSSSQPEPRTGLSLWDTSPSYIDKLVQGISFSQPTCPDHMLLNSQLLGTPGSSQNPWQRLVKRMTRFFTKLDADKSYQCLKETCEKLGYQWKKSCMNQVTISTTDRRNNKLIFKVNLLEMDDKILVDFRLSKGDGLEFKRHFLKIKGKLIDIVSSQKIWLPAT
# Description: as §1
# TYRO3/SKY = TYRO3/SKY (Homo sapiens, UniProt Q06418); settings: read-out: residual enzyme activity
# Description: as §1
# LRRK2 = LRRK2 (Homo sapiens, UniProt Q5S007); settings: LRRK2, 1 µM; read-out: residual enzyme activity
# Description: as §1
SMILES,remaining activity at 1 µM (DAPK1) [%],remaining activity at 1 µM (PHKG2) [%],remaining activity at 1 µM (ZAK/MLTK) [%],remaining activity at 1 µM (PKN3/PRK3) [%],remaining activity at 1 µM (LYN B) [%],remaining activity at 1 µM (SBK1) [%],remaining activity at 1 µM (NEK6) [%],remaining activity at 1 µM (TSSK2) [%],remaining activity at 1 µM (MAPKAPK3) [%],remaining activity at 1 µM (PIM2) [%],remaining activity at 1 µM (PKD2/PRKD2) [%],remaining activity at 1 µM (KSR1) [%],remaining activity at 1 µM (PKACB) [%],remaining activity at 1 µM (ALK2/ACVR1) [%],remaining activity at 1 µM (CDK9/CYCLIN T1) [%],remaining activity at 1 µM (PYK2) [%],remaining activity at 1 µM (AURORA A) [%],remaining activity at 1 µM (LKB1) [%],remaining activity at 1 µM (FMS) [%],remaining activity at 1 µM (IR) [%],further results
"Cc1ccc(Nc2ncc3c(n2)C2(CC2)C(=O)N(c2cc(NC(=O)c4cccc(C(F)(F)F)c4)ccc2C)C3)cn1 [Compound 51, N-(4-methyl-3-(2'-((6-methylpyridin-3-yl)amino)-7'-oxo-5'H-spiro[cyclopropane-1,8'-pyrido[4,3-d]pyrimidine]-6'(7'H)-yl)phenyl)-3-(trifluoromethyl)benzamide]",> 40,> 40,≤ 40,> 40,≤ 40,> 40,> 40,> 40,> 40,> 40,> 40,> 40,> 40,> 40,> 40,≤ 40,> 40,> 40,≤ 40,> 40,"remaining activity at 1 µM (CKIEPSILON; CKlepsilon): > 40%; remaining activity at 1 µM (CK2A2; CK2a2, 1 µM): > 40%; remaining activity at 1 µM (TAOK1): ≤ 40%; remaining activity at 1 µM (PAK2): > 40%; remaining activity at 1 µM (SNARK/NUAK2): > 40%; remaining activity at 1 µM (CDK5/P25): > 40%; remaining activity at 1 µM (LCK): ≤ 40%; remaining activity at 1 µM (STK38L/NDR2): > 40%; remaining activity at 1 µM (C-SRC; c-Src): ≤ 40%; remaining activity at 1 µM (EPHAS; EPHA5, 1 µM): ≤ 40%; remaining activity at 1 µM (CTK/MATK): > 40%; remaining activity at 1 µM (CHK1): > 40%; remaining activity at 1 µM (TYRO3/SKY): ≤ 40%; remaining activity at 1 µM (LRRK2): ≤ 40%"
"Cc1cn(-c2cc(C(=O)Nc3ccc(C)c(N4Cc5cnc(NC6CC6)nc5C5(CC5)C4=O)c3)cc(C(F)(F)F)c2)cn1 [Compound 8, N-(3-(2'-(cyclopropylamino)-7'-oxo-5'H-spiro[cyclopropane-1,8'-pyrido[4,3-d]pyrimidine]-6'(7'H)-yl)-4-methylphenyl)-3-(4-methyl-1H-imidazol-1-yl)-5-(trifluoromethyl)benzamide]",> 40,> 40,≤ 40,> 40,≤ 40,> 40,> 40,> 40,> 40,> 40,> 40,> 40,> 40,> 40,> 40,≤ 40,> 40,> 40,≤ 40,> 40,"remaining activity at 1 µM (CKIEPSILON; CKIEPSILON): > 40%; remaining activity at 1 µM (CK2A2; CK2A2, 1 µM): > 40%; remaining activity at 1 µM (TAOK1): ≤ 40%; remaining activity at 1 µM (PAK2): > 40%; remaining activity at 1 µM (SNARK/NUAK2): > 40%; remaining activity at 1 µM (CDK5/P25): > 40%; remaining activity at 1 µM (LCK): ≤ 40%; remaining activity at 1 µM (STK38L/NDR2): > 40%; remaining activity at 1 µM (C-SRC; C-SRC): ≤ 40%; remaining activity at 1 µM (EPHAS; EPHAS (row 107), 1 µM): ≤ 40%; remaining activity at 1 µM (CTK/MATK): > 40%; remaining activity at 1 µM (CHK1): > 40%; remaining activity at 1 µM (TYRO3/SKY): > 40%; remaining activity at 1 µM (LRRK2): > 40%"
